Source: PMC6273433, “Design, Synthesis and Cytotoxicity of Novel Dihydroartemisinin-Coumarin Hybrids via Click Chemistry” (Molecules, 2016)
Like-named read-outs stand apart in the source and are kept apart here.

Tests used:
[1] = tested on: HT-29 (human colon carcinoma cell line, overexpresses high amounts of CA IX); assay: MTT cytotoxicity assay, HT-29 under anoxia or normoxia; assay type: cell-based; conditions: for HT-29 Value = IC50(normoxia)/IC50(anoxia): HT-29, activity promotion under anoxia; for IC50: Homo sapiens
Method: (§1) We focused our attention on the cytotoxicity of the four series of newly-synthesized compounds (10a–e, 11a–e, 12a–e, and 13a–e) under normoxic or anoxic conditions.
(§2) The data was calculated by the Logit method and presented as IC50 values in Table 1.
(§3) All of the newly-synthesized compounds were screened for in vitro cytotoxicity by MTT assay. The exponentially-growing MRC-5, HCT-116, MDA-MB-231, and HT-29 cells were allowed to grow until 80% confluency, the culture medium was discarded, digested with trypsin, separated centrifugally, then fresh culture medium was added and blown gently into single-cell suspension. Then, the cell suspension was seeded into each well of 96-well microculture plates at a concentration of 1.5 × 10^3–3 × 10^3 cells/well.
(§4) The cells were incubated with 50 μL of 2 mg/mL MTT solution for 4 h in a humidified incubator. The supernatant was discarded, and the media were then replaced with 200 μL of dimethyl sulfoxide to dissolve the purple colored formazan crystals formed in the wells, and their absorbances were measured at 492 nm with a microplate reader (Synergy-HT, BioTek Instruments, Winooski, VT, USA); 200 μL DMSO was set as the blank control.
(§5) The anoxia condition was achieved by placing cells in a sealed hypoxia incubator chamber (Catalog Number 27310, Stemcell Technologies, Inc., Vancouver, BC, Canada) filled with 5% CO2 and 95% N2.

[2] = tested on: HCT-116 (human colorectal cancer cell line); assay: MTT cytotoxicity assay, HCT-116 under anoxia or normoxia; assay type: cell-based; conditions: for HCT-116 Value = IC50(normoxia)/IC50(anoxia): HCT-116, activity promotion under anoxia, >100 set as 100; for IC50: Homo sapiens
Method: as §1, §2, §3, §4, §5

[3] = tested on: MRC-5 (human fetal lung fibroblast cells, normal lung cell); assay: MTT cytotoxicity assay, MRC-5 normal cells; assay type: cell-based; conditions: MRC5, MRC-5, normoxia, 96 h MTT
Method: as §1, §2, §3, §4

[4] = tested on: MDA-MB-231 (human breast carcinoma cell line, CA IX negative); assay: MTT cytotoxicity assay, MDA-MB-231 under anoxia or normoxia; assay type: cell-based; conditions: for IC50: Homo sapiens; for MDA-MB-231 Value = IC50(normoxia)/IC50(anoxia): MDA-MB-231, activity promotion under anoxia, >100 set as 100
Method: as §1, §2, §3, §4, §5

[5] = HT-29, anoxia 24 h then normoxia 72 h, MTT, read-out: IC50 HT-29 Anoxia
[6] = HT-29, normoxia, 96 h MTT, read-out: IC50 HT-29 Normoxia
[7] = HCT-116, anoxia 24 h then normoxia 72 h, MTT, read-out: IC50 HCT-116 Anoxia
[8] = HCT-116, normoxia, 96 h MTT, read-out: IC50 HCT-116 Normoxia
[9] = MDA-MB-231, anoxia 24 h then normoxia 72 h, MTT, read-out: IC50 MDA-MB-231 Anoxia
[10] = MDA-MB-231, normoxia, 96 h MTT, read-out: IC50 MDA-MB-231 Normoxia

| Compound | HT-29 Value = IC50(normoxia)/IC50(anoxia) [1] | IC50 [1, 5] [µM] | IC50 [1, 6] [µM] | HCT-116 Value = IC50(normoxia)/IC50(anoxia) [2] | IC50 [2, 7] [µM] | IC50 [2, 8] [µM] | IC50 [3] [µM] | melting point [°C] | IC50 [4, 9] [µM] | IC50 [4, 10] [µM] | MDA-MB-231 Value = IC50(normoxia)/IC50(anoxia) [4] |
| --- | --- | --- | --- | --- | --- | --- | --- | --- | --- | --- | --- |
| Cc1c(C)c2ccc(OCc3cn(CCO[C@H]4O[C@@H]5O[C@@]6(C)CC[C@H]7[C@H](C)CC[C@@H]([C@H]4C)[C@@]57OO6)nn3)cc2oc1=O [12c, 7-(1-(2-(10β-Dihydroartemisininoxy)ethyl)-1H-1,2,3-triazol-4-yl)methoxy-3,4-dimethyl-2H-chromen-2-one] | 6.04 | 2.87 | 17.3 | 1.33 | 12.1 | 16 | 33.8 | 84 to 86 | 33.2 | > 100 |  |
| C[C@H]1[C@@H](OCCn2cc(COc3ccc4c(C(F)(F)F)cc(=O)oc4c3)nn2)O[C@@H]2O[C@@]3(C)CC[C@H]4[C@H](C)CC[C@@H]1[C@@]24OO3 [12b, 7-(1-(2-(10β-Dihydroartemisininoxy)ethyl)-1H-1,2,3-triazol-4-yl)methoxy-4-trifluoromethyl-2H-chromen-2-one] | 4.62 | 2.46 | 11.3 | 0.35 | 24.4 | 8.47 | 18.5 | 77 to 79 | 14.7 | 40.1 | 2.73 |
| CCOC(=O)c1cc2ccc(OCc3cn(CCO[C@H]4O[C@@H]5O[C@@]6(C)CC[C@H]7[C@H](C)CC[C@@H]([C@H]4C)[C@@]57OO6)nn3)cc2oc1=O [12e, Ethyl 2-oxo-7-(1-(2-(10β-dihydroartemisininoxy)ethyl)-1H-1,2,3-triazol-4-yl)methoxy-2H-chromene-3-carboxylate] | 1.88 | 20.8 | 39 | 1.62 | 35.7 | 57.9 | 69.5 | 71 to 73 | 65.1 | > 100 | 1.54 |
| CCOC(=O)c1cc2ccc(OCc3cn(CCCO[C@H]4O[C@@H]5O[C@@]6(C)CC[C@H]7[C@H](C)CC[C@@H]([C@H]4C)[C@@]57OO6)nn3)cc2oc1=O [13e, Ethyl 2-oxo-7-(1-(3-(10β-dihydroartemisininoxy)propyl)-1H-1,2,3-triazol-4-yl)methoxy-2H-chromene-3-carboxylate] | 2.22 | 7.09 | 15.7 | 3.65 | 17.6 | 64.3 | 27.2 | 79 to 81 | 25.9 | 53.7 | 2.07 |
| Cc1cc(=O)oc2cc(OCc3cn(CCO[C@H]4O[C@@H]5O[C@@]6(C)CC[C@H]7[C@H](C)CC[C@@H]([C@H]4C)[C@@]57OO6)nn3)ccc12 [12a, 7-(1-(2-(10β-Dihydroartemisininoxy)ethyl)-1H-1,2,3-triazol-4-yl)methoxy-4-methyl-2H-chromen-2-one] | 3.11 | 10.6 | 33 | 1.50 | 18.3 | 27.4 | 37.4 | 79 to 81 | 47.7 | 125 | 2.63 |
| C[C@H]1[C@@H](OCCCn2cc(COc3ccc4c(C(F)(F)F)cc(=O)oc4c3)nn2)O[C@@H]2O[C@@]3(C)CC[C@H]4[C@H](C)CC[C@@H]1[C@@]24OO3 [13b, 7-(1-(3-(10β-Dihydroartemisininoxy)propyl)-1H-1,2,3-triazol-4-yl)methoxy-4-trifluoromethyl-2H-chromen-2-one] | 3.74 | 5.31 | 19.8 | 7.43 | 2.75 | 20.4 | 21.4 | 69 to 71 | 26.6 | > 100 | 3.76 |
| Cc1c(C)c2ccc(OCc3cn(CCCO[C@H]4O[C@@H]5O[C@@]6(C)CC[C@H]7[C@H](C)CC[C@@H]([C@H]4C)[C@@]57OO6)nn3)cc2oc1=O [13c, 7-(1-(3-(10β-Dihydroartemisininoxy)propyl)-1H-1,2,3-triazol-4-yl)methoxy-3,4-dimethyl-2H-chromen-2-one] | 4.23 | 2.8 | 11.9 | 8.95 | 2.13 | 19.1 | 27.8 | 68 to 70 | 4.17 | 59.6 | 14.29 |
| Cc1cc(=O)oc2cc(OCc3cn(CCCO[C@H]4O[C@@H]5O[C@@]6(C)CC[C@H]7[C@H](C)CC[C@@H]([C@H]4C)[C@@]57OO6)nn3)ccc12 [13a, 7-(1-(3-(10β-Dihydroartemisininoxy)propyl)-1H-1,2,3-triazol-4-yl)methoxy-4-methyl-2H-chromen-2-one] | 4.30 | 6.4 | 27.5 | 2.95 | 9.65 | 28.5 | 26.2 | 75 to 77 | 36.1 | > 100 | 2.77 |
| Cc1c(Cl)c(=O)oc2cc(OCc3cn(CCCO[C@H]4O[C@@H]5O[C@@]6(C)CC[C@H]7[C@H](C)CC[C@@H]([C@H]4C)[C@@]57OO6)nn3)ccc12 [13d, 3-Chloro-7-(1-(3-(10β-Dihydroartemisininoxy)propyl)-1H-1,2,3-triazol-4-yl)methoxy-4-methyl-2H-chromen-2-one] | 1.87 | 4.68 | 8.76 | 41.38 | 0.43 | 18 | 31.5 | 71 to 73 | 3.62 | 72.5 | 20.03 |
